A short description of series [1]: Accelerated aging of curatives in polyol mix with water and temperature. Particulars: curative 2.0 parts. Format: physicochemical. The source says: [Note: polyols supplied to Shepherd as their 4-component polyol systems by Huntsman.] BiCAT 8108 is bismuth neodecanoate, 20 wt % bismuth.
Series [2] is described as follows: Moisture stability of curative in polyol side of two-part TDI spray-foam system. The class given is physicochemical. The procedure:
BiCAT 8842 was used in a two-part polyurethane system (TDI) for spray-foam applications. The BiCAT 8842 was added at 0.125 wt % to the polyol side (B-part). In addition, the polyol side contained 2.5 wt % water. […] The same dosage of stannous octoate curative was added to the TDI-tin-based control formulation.

[3] abbreviates: DAY 1, DI water 2.5 parts, oven 130° F.
Setting [4] is: DAY 2, DI water 2.5 parts, oven 130° F.
The mark [5] stands for this setting: DAY 3, DI water 2.5 parts, oven 130° F.
The mark [6] stands for this setting: DAY 4, DI water 2.5 parts, oven 160° F.
Where [7] appears, read: DAY 5, DI water 4.0 parts, oven 160° F.
Setting [8] is: DAY 6, DI water 4.0 parts, oven 160° F.

As for “bismuth neodecanoate [BiCAT 8108, reference compound]”, the Stability result in series [1] (setting [3]) is reported as “transparent”; in series [1] (setting [4]), “transparent”; in series [1] (setting [5]), “transparent”; in series [1] (setting [6]) it was “transparent”; in series [1] (setting [7]), “very sl. hazy”; in series [1] (setting [8]), “opaque; ppt formation”.
Turning to “bismuth neodecanoate [reference compound]”, in series [2] (same use level, polyol side containing 2.5 wt % water), the “time until formulation began to turn white (bismuth hydrolysis to the hydroxide)” value was around 14 min.
With “bismuth, 1,1′,1″,1′″-(1,2-ethanediyldinitrilo)tetrakis[2-propanol] neodecanoate complexes [Curative 8840]”, the Stability entry in series [1] (setting [3]), in series [1] (setting [4]), in series [1] (setting [5]), in series [1] (setting [6]), in series [1] (setting [7]) and in series [1] (setting [8]) was “transparent” in each case.
Consider “bismuth, 2,2′,2″,2′″-(1,2-ethanediyldinitrilo)tetrakis[ethanol] neodecanoate complexes [Curative 8842]”, for which the “stability in the presence of moisture” value in series [2] (0.125 wt % in polyol side (B-part) containing 2.5 wt % water) is “remained stable for many weeks”. Further, the Stability result in series [1] (setting [3]), in series [1] (setting [4]), in series [1] (setting [5]), in series [1] (setting [6]), in series [1] (setting [7]) and in series [1] (setting [8]) was “transparent” in each case.
